target: MAPK14 (UniProt Q16539); experiment: Enzyme Assay; details: not given
Sequence (Q16539 whole entry, looked up): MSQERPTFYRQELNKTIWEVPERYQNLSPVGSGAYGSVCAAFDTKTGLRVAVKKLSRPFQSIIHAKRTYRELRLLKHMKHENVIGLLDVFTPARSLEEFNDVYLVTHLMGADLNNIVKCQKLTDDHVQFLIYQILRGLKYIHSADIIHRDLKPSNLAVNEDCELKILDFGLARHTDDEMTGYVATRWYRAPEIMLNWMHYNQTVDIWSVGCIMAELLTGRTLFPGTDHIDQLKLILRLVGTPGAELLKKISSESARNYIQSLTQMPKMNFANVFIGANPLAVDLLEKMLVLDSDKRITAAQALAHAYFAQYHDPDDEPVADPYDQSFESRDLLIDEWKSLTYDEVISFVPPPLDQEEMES

Question: With `O=C(Nc1ccc(Cl)c(COc2cnccn2)c1)c1cc(F)cc(N2CCOCC2)c1` as the compound, how does the IC50 read?
Answer: < 2 µM

Question: For `O=C(Nc1ccc(Cl)c(COc2ccc(NCCO)nc2)c1)c1cc(F)cc(N2CCOCC2)c1`, which IC50 is on record?
Answer: < 2 µM

Question: How did the IC50 turn out when `Nc1nccnc1OCc1cccc2ccccc12` was run?
Answer: < 1000 µM

Question: How did the IC50 turn out when `O=C(Nc1ccc(Cl)c(COc2cnccn2)c1)c1ccnc(N2CCOCC2)c1` was run?
Answer: < 2 µM

Question: For `NS(=O)(=O)CCNC(=O)c1cnc(OCc2c(Cl)cccc2Cl)cn1`, which IC50 is on record?
Answer: < 1000 µM

Question: `CC(C)(CO)NC(=O)c1cnc(OCc2c(Cl)cccc2Cl)cn1` was tested. Which IC50 did it give?
Answer: < 20 µM

Question: How did the IC50 turn out when `O=C(Nc1ccc(F)c(COc2cnccn2)c1)Nc1nc(-c2ccccc2)cs1` was run?
Answer: < 20 µM

Question: Which IC50 does the source give for `Cc1noc(-c2ccccc2)c1C(=O)Nc1ccc(F)c(COc2cnccn2)c1` here?
Answer: < 200 µM

Question: With `CC(C)(C)c1cccc(C(=O)Nc2ccc(F)c(COc3cnccn3)c2)c1` as the compound, how does the IC50 read?
Answer: < 2 µM

Question: `CC(C)(C)c1cc(NC(=O)Nc2ccc(F)c(COc3cnccn3)c2)n(-c2ccncc2)n1` was tested. Which IC50 did it give?
Answer: < 2 µM

Question: For `Nc1ncccc1OCn1nnc2ccccc21`, which IC50 is on record?
Answer: < 1000 µM

Question: `O=C(Nc1ccc(Cl)c(COc2ccc(NCc3ccccc3)nc2)c1)c1cc(F)cc(N2CCOCC2)c1` was tested. Which IC50 did it give?
Answer: < 2 µM

Question: How did the IC50 turn out when `O=C(Nc1ccc(F)c(COc2cccnc2)c1)c1ccccc1` was run?
Answer: < 200 µM

Question: How did the IC50 turn out when `Nc1cnc(OCc2c(Cl)cccc2Cl)cn1` was run?
Answer: < 200 µM

Question: With `O=C(Nc1ccc(Cl)c(COc2cccnc2)c1)c1cccc(F)c1` as the compound, how does the IC50 read?
Answer: < 200 µM

Question: For `O=C1c2ccccc2CN1c1ccc(F)c(COc2cccnc2)c1`, which IC50 is on record?
Answer: < 1000 µM

Question: How did the IC50 turn out when `O=C(Nc1ccc(F)c(COc2cnccn2)c1)Nc1nnc(C2CCCO2)s1` (centres undefined) was run?
Answer: < 2 µM

Question: With `O=C(Nc1ccc(F)c(COc2cnccn2)c1)Nc1ncc(-c2ccc(Cl)cc2)s1` as the compound, how does the IC50 read?
Answer: < 200 µM

Question: With `CC(C)(Cc1ccncc1)NC(=O)c1cnc(OCc2c(Cl)cccc2Cl)cn1` as the compound, how does the IC50 read?
Answer: < 20 µM

Question: With `Cc1cc(C)cc(COc2cccnc2N)c1` as the compound, how does the IC50 read?
Answer: < 200 µM

Question: How did the IC50 turn out when `OCCNc1cnc(OCc2c(Cl)cccc2Cl)cn1` was run?
Answer: < 200 µM

Question: For `CCN(CC)C(=O)Nc1cnc(OCc2c(Cl)cccc2Cl)cn1`, which IC50 is on record?
Answer: < 200 µM

Question: Which IC50 does the source give for `Cc1ccc(-n2nc(C(C)(C)C)cc2NC(=O)Nc2ccc(F)c(COc3cnccn3)c2)cc1` here?
Answer: < 2 µM

Question: With `Nc1ncccc1OCc1cccc(-c2ccccc2)c1` as the compound, how does the IC50 read?
Answer: < 200 µM

Question: For `O=C(Nc1ccc(F)c(COc2cnccn2)c1)c1cccc(S(=O)(=O)N2CCOCC2)c1`, which IC50 is on record?
Answer: < 2 µM

Question: How did the IC50 turn out when `Nc1ccncc1OCc1cccc2ccccc12` was run?
Answer: < 1000 µM

Question: Which IC50 does the source give for `Clc1cccc(Cl)c1COc1cnc(N2CCOCC2)cn1` here?
Answer: < 200 µM

Question: For `Nc1ncccc1OCc1ccc(F)cc1F`, which IC50 is on record?
Answer: < 1000 µM

Question: `O=C(Nc1ccc(F)c(COc2cccnc2)c1)c1cc(F)cc(N2CCOCC2)c1` was tested. Which IC50 did it give?
Answer: < 2 µM

Question: How did the IC50 turn out when `Nc1ncccc1OCc1ccc(Cl)cc1Cl` was run?
Answer: < 1000 µM

Question: Which IC50 does the source give for `CC(C)(CO)C(=O)Nc1cnc(OCc2c(Cl)cccc2Cl)cn1` here?
Answer: < 200 µM

Question: Which IC50 does the source give for `O=C1c2ccccc2C(=O)N1c1ccc(Cl)c(COc2cccnc2)c1` here?
Answer: < 1000 µM

Question: `CC(C)(C)c1cc(NC(=O)Oc2cccc(COc3cnccn3)c2)n(-c2ccccc2)n1` was tested. Which IC50 did it give?
Answer: < 200 µM

Question: With `Clc1cnc(OCc2c(Cl)cccc2Cl)cn1` as the compound, how does the IC50 read?
Answer: < 1000 µM

Question: Which IC50 does the source give for `O=C(Nc1ccc(F)c(COc2cnccn2)c1)Nc1cc(-c2ccccc2)[nH]n1` here?
Answer: < 2 µM

Question: How did the IC50 turn out when `O=C(Nc1ccc(F)c(COc2cnccn2)c1)Nc1cc(C2CCOCC2)nn1-c1ccc(F)cc1` was run?
Answer: < 2 µM

Question: `Nc1ncc(OCc2cccc3ccccc23)nc1Br` was tested. Which IC50 did it give?
Answer: < 1000 µM

target: MAPK14 (human) (UniProt Q16539); experiment: Inhibition of LPS-Induced TNF-alpha Production in THP-1 Cells; details: thp1
Sequence (Q16539 whole entry, looked up): as above

Question: `O=C(Nc1ccc(Cl)c(COc2cnccn2)c1)c1cc(F)cc(N2CCOCC2)c1` was tested. Which IC50 did it give?
Answer: 0.21 µM

Question: Which IC50 does the source give for `O=C(Nc1ccc(Cl)c(COc2ccc(NCCO)nc2)c1)c1cc(F)cc(N2CCOCC2)c1` here?
Answer: 0.97 µM

Source: the Kinase Knowledgebase extract (Sharma et al. 2016)
